Data published in ChEMBL document CHEMBL5375983, “Discovery of YSR734: A Covalent HDAC Inhibitor with Cellular Activity in Acute Myeloid Leukemia and Duchenne Muscular Dystrophy” (J Med Chem, 2023).
pIC50: −log10 of the molar value. Activity calls are given as the source filed them. No cut-off for these calls is given here.

Experiments:
MV4-11 [1] = experiment: Cytotoxicity against human MV4-11 cells assessed as inhibition of cell growth incubated for 72 hrs by celltiter-blue viability assay; format: functional, cell-based; conditions: MV4-11, 72 h
Histone deacetylase 2 [2] = molecular target: T1, Histone deacetylase 2 (Homo sapiens, UniProt Q92769); experiment: Inhibition of HDAC2 (unknown origin) using 6-carboxyfluorescein peptide as substrate preincubated with compound followed by substrate addition by electrophoretic mobility shift assay
[3] = Cytotoxicity against human MRC9 cells assessed as inhibition of cell growth incubated for 72 hrs by celltiter-blue viability assay; format: toxicity, cell-based
[4] = Selectivity index, ratio of IC50 for cytotoxicity against human MRC9 cells to IC50 for cytotoxicity against human MV4-11 cells
Histone deacetylase 1 [5] = molecular target: T2, Histone deacetylase 1 (Homo sapiens, UniProt Q13547); experiment: Inhibition of HDAC1 (unknown origin) using 6-carboxyfluorescein peptide as substrate preincubated with compound followed by substrate addition by electrophoretic mobility shift assay
RS4-11 = experiment: Cytotoxicity against human RS4-11 cells assessed as inhibition of cell growth incubated for 72 hrs by celltiter-blue viability assay; format: functional, cell-based; conditions: RS4-11, 72 h
Histone deacetylase 2 [6] = molecular target: T1, Histone deacetylase 2; experiment: Inhibition of HDAC2 (unknown origin) using 6-carboxyfluorescein peptide as substrate preincubated with compound for 2 hrs followed by substrate addition by electrophoretic mobility shift assay
Histone deacetylase 2 [7] = molecular target: T1, Histone deacetylase 2; experiment: Inhibition of HDAC2 (unknown origin) using 6-carboxyfluorescein peptide as substrate preincubated with compound for 6 hrs followed by substrate addition by electrophoretic mobility shift assay
[8] = Glutathione reactivity assessed as compound consumption at 500 nM measured after 1 to 3 hrs by LC-MS/MS analysis; format: ADME; conditions: glutathione solution, time 1-3 hrs, read-out: Activity
[9] = Cmax in CD-1 mouse at 10 mg/kg, ip measured upto 12 hrs by LC-MS/MS analysis; format: ADME, organism-based; set-up: time < 12 hrs, dose 10 mg/kg, route ip; conditions: in vivo
Histone deacetylase 1 [10] = molecular target: T2, Histone deacetylase 1; experiment: Inhibition of HDAC1 (unknown origin) using 6-carboxyfluorescein peptide as substrate preincubated with compound for 6 hrs followed by substrate addition by electrophoretic mobility shift assay
[11] = Glutathione reactivity assessed as compound consumption at 500 nM incubated for 16 hrs by LC-MS/MS analysis; format: ADME; conditions: glutathione solution, read-out: Drug metabolism
Histone deacetylase 3 [12] = molecular target: T3, Histone deacetylase 3 (Homo sapiens, UniProt O15379); experiment: Inhibition of full length recombinant human HDAC3 expressed in Sf9 cells using 6-carboxyfluorescein peptide as substrate preincubated with compound for 2 hrs followed by substrate addition and measured after 3 hrs by electrophoretic mobility shift assay; format: cell-based
[13] = Half life in CD-1 mouse at 10 mg/kg, ip measured upto 12 hrs by LC-MS/MS analysis; format: ADME, organism-based; conditions: in vivo
Histone deacetylase 3 [14] = molecular target: T3, Histone deacetylase 3; experiment: Inhibition of full length recombinant human HDAC3 expressed in Sf9 cells using 6-carboxyfluorescein peptide as substrate preincubated with compound for 6 hrs followed by substrate addition and measured after 3 hrs by electrophoretic mobility shift assay; format: cell-based
Histone deacetylase 8 = molecular target: T4, Histone deacetylase 8 (Homo sapiens, UniProt Q9BY41); experiment: Inhibition of full length recombinant human HDAC8 expressed in Sf9 cells using 6-carboxyfluorescein peptide as substrate preincubated with compound followed by substrate addition and measured after 3 hrs by electrophoretic mobility shift assay
T4 sequence (Q9BY41 whole entry): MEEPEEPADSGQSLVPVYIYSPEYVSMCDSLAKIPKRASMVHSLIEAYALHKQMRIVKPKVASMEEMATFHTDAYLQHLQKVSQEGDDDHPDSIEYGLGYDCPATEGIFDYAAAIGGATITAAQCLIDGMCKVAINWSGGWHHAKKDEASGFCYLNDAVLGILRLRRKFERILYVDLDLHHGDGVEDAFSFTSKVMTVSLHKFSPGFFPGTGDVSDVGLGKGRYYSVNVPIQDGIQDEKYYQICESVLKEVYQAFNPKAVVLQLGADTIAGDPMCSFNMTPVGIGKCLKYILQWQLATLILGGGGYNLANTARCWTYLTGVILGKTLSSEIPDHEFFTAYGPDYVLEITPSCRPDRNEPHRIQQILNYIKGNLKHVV

[15] = Tmax in CD-1 mouse at 10 mg/kg, ip measured upto 12 hrs by LC-MS/MS analysis; format: ADME, organism-based; conditions: in vivo
[16] = AUCinfinity in CD-1 mouse at 10 mg/kg, ip measured upto 12 hrs by LC-MS/MS analysis; format: ADME, organism-based; set-up: time < 12 hrs, dose 10 mg/kg, route ip; conditions: in vivo
Histone deacetylase 3 [17] = molecular target: T3, Histone deacetylase 3; experiment: Inhibition of full length recombinant human HDAC3 expressed in Sf9 cells using 6-carboxyfluorescein peptide as substrate preincubated with compound followed by substrate addition and measured after 3 hrs by electrophoretic mobility shift assay; format: cell-based
Histone deacetylase 2 [18] = molecular target: T1, Histone deacetylase 2; experiment: Binding affinity to recombinant full length HDAC2 catalytic domain Cys274 (unknown origin) assessed as formation of single covalent adduct at 50 uM incubated for 2 hrs by trypsin-digest protein mapping analysis
[19] = molecular target: Histone deacetylase 1/2/3 (Homo sapiens) (UniProt Q13547+O15379+Q92769); experiment: […] binding affinity to HDAC1/2/3 in human MV4-11 cells assessed as increase in Ac-histone-H3 level at […] incubated for 6 hrs followed by compound washout and measured after 16 hrs by Western blot analysis; format: cell-based; conditions: dose 2.5 µM
[20] = Stability in human whole blood assessed as half life at 100 uM measured upto 40 mins by LC-MS/MS analysis; format: ADME, tissue-based
MV4-11 [21] = experiment: Induction of apoptosis in human MV4-11 cells assessed as healthy cells at 4 uM measured after 6 hrs by annexin V-FITC/PI staining based FACS assay (reference value: 63.50%); format: functional
Histone deacetylase 11 = molecular target: T5, Histone deacetylase 11 (Homo sapiens, UniProt Q96DB2); experiment: Inhibition of full length recombinant human HDAC11 expressed in Sf9 cells using 6-carboxyfluorescein peptide as substrate preincubated with compound for 6 hrs followed by substrate addition and measured after 17 hrs by electrophoretic mobility shift assay
T5 sequence (Q96DB2 whole entry): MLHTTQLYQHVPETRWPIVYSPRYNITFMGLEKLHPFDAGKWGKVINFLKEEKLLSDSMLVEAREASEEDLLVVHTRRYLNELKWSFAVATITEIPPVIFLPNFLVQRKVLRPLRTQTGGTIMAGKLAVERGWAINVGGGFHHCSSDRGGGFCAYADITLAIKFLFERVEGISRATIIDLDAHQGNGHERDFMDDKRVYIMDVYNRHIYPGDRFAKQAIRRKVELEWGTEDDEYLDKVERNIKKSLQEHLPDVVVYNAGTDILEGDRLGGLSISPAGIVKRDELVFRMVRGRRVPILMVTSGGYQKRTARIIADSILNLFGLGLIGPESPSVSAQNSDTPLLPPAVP

MV4-11 [22] = experiment: Induction of apoptosis in human MV4-11 cells assessed as late apoptotic cells at 1 uM measured after 6 hrs by annexin V-FITC/PI staining based FACS assay (reference value: 16.21%); format: functional
MV4-11 [23] = experiment: Induction of apoptosis in human MV4-11 cells assessed as late apoptotic cells at 4 uM measured after 6 hrs by annexin V-FITC/PI staining based FACS assay (reference value: 16.21%); format: functional
[24] = MRT in CD-1 mouse at 10 mg/kg, ip measured upto 12 hrs by LC-MS/MS analysis; format: ADME, organism-based; conditions: in vivo
MV4-11 [25] = experiment: Induction of apoptosis in human MV4-11 cells assessed as healthy cells at 1 uM measured after 6 hrs by annexin V-FITC/PI staining based FACS assay (reference value: 63.50%); format: functional

T2 sequence (Q13547 whole entry): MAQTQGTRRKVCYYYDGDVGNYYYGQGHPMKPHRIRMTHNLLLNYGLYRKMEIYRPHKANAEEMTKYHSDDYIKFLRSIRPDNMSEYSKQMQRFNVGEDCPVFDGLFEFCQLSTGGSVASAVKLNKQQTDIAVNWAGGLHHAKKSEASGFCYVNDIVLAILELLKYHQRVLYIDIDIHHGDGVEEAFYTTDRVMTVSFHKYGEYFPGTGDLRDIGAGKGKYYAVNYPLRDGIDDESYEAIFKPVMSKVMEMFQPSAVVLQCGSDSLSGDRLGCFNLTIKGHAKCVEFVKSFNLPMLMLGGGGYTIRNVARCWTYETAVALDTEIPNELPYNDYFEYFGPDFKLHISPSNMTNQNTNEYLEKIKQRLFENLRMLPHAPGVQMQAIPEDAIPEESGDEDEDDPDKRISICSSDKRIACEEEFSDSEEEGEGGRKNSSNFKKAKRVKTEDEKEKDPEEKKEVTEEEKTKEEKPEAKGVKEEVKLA
T3 sequence (O15379 whole entry): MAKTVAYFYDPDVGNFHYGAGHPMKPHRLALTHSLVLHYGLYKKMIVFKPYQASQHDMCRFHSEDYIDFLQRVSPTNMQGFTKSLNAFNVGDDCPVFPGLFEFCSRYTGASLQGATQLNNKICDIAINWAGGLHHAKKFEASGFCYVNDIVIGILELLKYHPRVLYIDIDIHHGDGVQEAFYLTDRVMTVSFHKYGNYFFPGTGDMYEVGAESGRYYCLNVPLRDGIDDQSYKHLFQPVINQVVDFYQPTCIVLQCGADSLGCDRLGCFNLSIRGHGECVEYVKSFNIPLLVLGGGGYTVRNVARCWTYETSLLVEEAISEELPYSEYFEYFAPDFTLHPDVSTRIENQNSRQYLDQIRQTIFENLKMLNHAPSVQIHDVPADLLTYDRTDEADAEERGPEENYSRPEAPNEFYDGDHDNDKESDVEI
T1 sequence (Q92769 whole entry): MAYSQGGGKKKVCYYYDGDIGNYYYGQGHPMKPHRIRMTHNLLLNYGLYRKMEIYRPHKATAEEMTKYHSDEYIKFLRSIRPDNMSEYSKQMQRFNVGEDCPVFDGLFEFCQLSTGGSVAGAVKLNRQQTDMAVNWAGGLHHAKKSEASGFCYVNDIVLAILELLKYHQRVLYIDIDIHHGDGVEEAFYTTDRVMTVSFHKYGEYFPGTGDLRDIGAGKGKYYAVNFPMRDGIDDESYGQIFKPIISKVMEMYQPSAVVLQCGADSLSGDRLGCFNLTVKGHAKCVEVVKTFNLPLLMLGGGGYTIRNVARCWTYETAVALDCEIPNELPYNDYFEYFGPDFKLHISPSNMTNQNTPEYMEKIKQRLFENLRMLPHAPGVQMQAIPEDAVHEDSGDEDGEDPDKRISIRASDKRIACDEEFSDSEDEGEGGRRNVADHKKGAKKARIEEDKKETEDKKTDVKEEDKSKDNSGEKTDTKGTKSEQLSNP

Q: Which results are given for `Nc1ccccc1NC(=O)c1ccc(CNC(=O)OC2CCN(S(=O)(=O)CCl)CC2)cc1`?
A: pIC50 (MV4-11 [1]): 5.86; pIC50 (Histone deacetylase 2 [2]): < 6.00; IC50 at 72 h [3]: 15900 nM; Ratio IC50 [4]: 12; pIC50 (Histone deacetylase 1 [5]): 6.43; pIC50 (RS4-11): 6.14; pIC50 (Histone deacetylase 2 [6]): 6.29; pIC50 (Histone deacetylase 2 [7]): 6.70

Q: Which results are given for `C#CC(=O)N1CCC(OC(=O)NCc2ccc(C(=O)Nc3ccccc3N)cc2)CC1`?
A: pIC50 (Histone deacetylase 2 [2]): < 6.00; pIC50 (Histone deacetylase 1 [5]): 6.18; degraded at 0.5 µM [8]: > 50%; pIC50 (Histone deacetylase 2 [6]): 6.12; pIC50 (Histone deacetylase 2 [7]): 6.48

Q: With `C=CC(=O)N1CCC(OC(=O)NCc2ccc(C(=O)Nc3ccccc3N)cc2)CC1` as the molecule, how does the pIC50 (MV4-11 [1]) read?
A: 5.63

Q: And the pIC50 (Histone deacetylase 2 [2])?
A: < 6.00

Q: What about the IC50 at 72 h [3] of the same molecule?
A: 21600 nM

Q: What about the “Ratio IC50” value [4] of the same molecule?
A: 9

Q: And the pIC50 (Histone deacetylase 1 [5])?
A: 6.23

Q: What about the pIC50 (RS4-11) of the same molecule?
A: 5.82

Q: And the pIC50 (Histone deacetylase 2 [6])?
A: 6.06

Q: And the pIC50 (Histone deacetylase 2 [7])?
A: 6.42

Q: Which results are given for `Nc1ccccc1NC(=O)c1ccc(CNC(=O)OC2CCCCC2)cc1`?
A: pIC50 (MV4-11 [1]): 5.97; pIC50 (Histone deacetylase 2 [2]): < 6.00; IC50 at 72 h [3]: 10900 nM; Ratio IC50 [4]: 10; pIC50 (Histone deacetylase 1 [5]): 6.04; Cmax [9]: 2700 ng/mL; pIC50 (Histone deacetylase 1 [10]): 7.19; degraded at 16 h, 0.5 µM [11]: < 10%; pIC50 (RS4-11): 6.21; pIC50 (Histone deacetylase 3 [12]): 7.14; pIC50 (Histone deacetylase 2 [6]): 6.31; half-life [13]: 311 min; pIC50 (Histone deacetylase 3 [14]): 7.44; pIC50 (Histone deacetylase 8): < 5.00; Tmax [15]: 4.8 min; AUC(0-inf) [16]: 1810 ng·h/mL; pIC50 (Histone deacetylase 2 [7]): 6.56; pIC50 (Histone deacetylase 3 [17]): 6.56

Q: Which results are given for `C=C=CC(=O)N1CCC(OC(=O)NCc2ccc(C(=O)Nc3ccccc3N)cc2)CC1`?
A: pIC50 (Histone deacetylase 2 [2]): < 6.00; pIC50 (Histone deacetylase 1 [5]): 6.16; pIC50 (Histone deacetylase 2 [6]): 6.08; pIC50 (Histone deacetylase 2 [7]): 6.41

Q: With `C=CS(=O)(=O)N1CCC(OC(=O)NCc2ccc(C(=O)Nc3ccccc3N)cc2)CC1` as the molecule, how does the pIC50 (Histone deacetylase 2 [2]) read?
A: < 6.00

Q: And the Activity (Histone deacetylase 2 [18])?
A: Active

Q: And the pIC50 (Histone deacetylase 1 [5])?
A: 6.35

Q: And the degraded at 0.5 µM [8]?
A: > 50%

Q: And the pIC50 (Histone deacetylase 2 [6])?
A: 6.04

Q: And the pIC50 (Histone deacetylase 2 [7])?
A: 6.42

Q: For `Nc1ccccc1NC(=O)c1ccc(CNC(=O)OC2CCN(S(=O)(=O)c3c(F)c(F)cc(F)c3F)CC2)cc1`, which Activity [19] is on record?
A: Active

Q: With `CN(C)C/C=C/C(=O)N1CCC(OC(=O)NCc2ccc(C(=O)Nc3ccccc3N)cc2)CC1` as the molecule, how does the pIC50 (MV4-11 [1]) read?
A: 5.74

Q: What about the pIC50 (Histone deacetylase 2 [2]) of the same molecule?
A: 6.09

Q: And the IC50 at 72 h [3]?
A: 31200 nM

Q: And the “Ratio IC50” value [4]?
A: 17

Q: What about the pIC50 (Histone deacetylase 1 [5]) of the same molecule?
A: 6.70

Q: And the pIC50 (RS4-11)?
A: 5.91

Q: And the pIC50 (Histone deacetylase 2 [6])?
A: 6.53

Q: What about the pIC50 (Histone deacetylase 2 [7]) of the same molecule?
A: 6.74

Q: Which results are given for `Nc1ccccc1NC(=O)c1ccc(CNC(=O)OC2CCN(C(=O)CCl)CC2)cc1`?
A: pIC50 (Histone deacetylase 2 [2]): < 6.00; pIC50 (Histone deacetylase 1 [5]): < 6.00; degraded at 0.5 µM [8]: > 50%; pIC50 (Histone deacetylase 2 [6]): < 6.00; pIC50 (Histone deacetylase 2 [7]): 6.14

Q: With `C=CC(=O)N1CCC[C@@H](n2nc(-c3ccc(Oc4ccccc4)cc3)c3c(N)ncnc32)C1` [IBRUTINIB] as the molecule, how does the half-life at 100 µM [20] read?
A: 64 min

Q: With `Nc1ccccc1NC(=O)c1ccc(CNC(=O)OCc2cccnc2)cc1` [ENTINOSTAT] as the molecule, how does the pIC50 (MV4-11 [1]) read?
A: 6.15

Q: What about the half-life at 100 µM [20] of the same molecule?
A: 45 min

Q: What about the IC50 at 72 h [3] of the same molecule?
A: 10200 nM

Q: And the Activity (MV4-11 [21])?
A: 40.57%

Q: And the Cmax [9]?
A: 6250 ng/mL

Q: And the pIC50 (Histone deacetylase 11)?
A: < 6.00

Q: And the degraded at 16 h, 0.5 µM [11]?
A: < 10%

Q: What about the pIC50 (RS4-11) of the same molecule?
A: 6.52

Q: And the half-life [13]?
A: 191 min

Q: What about the Activity (MV4-11 [22]) of the same molecule?
A: 23.15%

Q: And the Activity (MV4-11 [23])?
A: 30.45%

Q: What about the MRT [24] of the same molecule?
A: 57.6 min

Q: What about the Tmax [15] of the same molecule?
A: 15 min

Q: And the Activity (MV4-11 [25])?
A: 53.43%

Q: And the AUC(0-inf) [16]?
A: 5260 ng·h/mL
